According to ChEMBL document CHEMBL1201862, “PubChem BioAssay data set” (2004):
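Five concentrations, 48 hours, 96-well plates. GI50 is the concentration that inhibits growth by half.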 Activity calls are given as the source filed them. Rule as the data show it: active = GI50 up to about 1.1 µM and inactive = higher.

Columns and labels:
Experiment in all cases: NCI-60 cell line screen, 48 h
SW-620 = system: SW-620
RXF 393 = system: RXF 393
M14 = system: M14
NCI-H226 = system: NCI-H226
UACC-257 = system: UACC-257
MDA-MB-231 = system: MDA-MB-231
RPMI-8226 = system: RPMI-8226
SN12C = system: SN12C
SK-MEL-2 = system: SK-MEL-2
OVCAR-4 = system: OVCAR-4
UO-31 = system: UO-31
SK-MEL-28 = system: SK-MEL-28
HCT-116 = system: HCT-116
HT-29 = system: HT-29
NCI/ADR-RES = system: NCI/ADR-RES
SF-539 = system: SF-539
NCI-H460 = system: NCI-H460
MDA-MB-435 = system: MDA-MB-435
SNB-19 = system: SNB-19
OVCAR-5 = system: OVCAR-5

O=c1c2c(no[n+]2[O-])c2ccccc2n1-c1ccccc1
GI50 (SW-620): 2.65 µM (inactive)
GI50 (RXF 393): 6.55 µM (inactive)
GI50 (M14): 2.65 µM (inactive)
GI50 (NCI-H226): 9.93 µM (inactive)
GI50 (UACC-257): 13 µM (inactive)
GI50 (MDA-MB-231): 12.6 µM (inactive)
GI50 (RPMI-8226): 5.87 µM (inactive)
GI50 (SN12C): 6.01 µM (inactive)
GI50 (SK-MEL-2): 11.8 µM (inactive)
GI50 (OVCAR-4): 6.18 µM (inactive)
GI50 (UO-31): 11.9 µM (inactive)
GI50 (SK-MEL-28): 5.46 µM (inactive)
GI50 (HCT-116): 2.17 µM (inactive)
GI50 (HT-29): 4.89 µM (inactive)
GI50 (NCI/ADR-RES): 14.6 µM (inactive)
GI50 (SF-539): 8.26 µM (inactive)
GI50 (NCI-H460): 8.2 µM (inactive)
GI50 (MDA-MB-435): 5.43 µM (inactive)
GI50 (SNB-19): 14.5 µM (inactive)
GI50 (OVCAR-5): 14.8 µM (inactive)

N#C[BH2-][n+]1cn(C2CC(OP(=O)(O)OCC3OC(n4cnc5c(=O)[nH]c(N)nc54)CC3O)C(CO)O2)c2nc(N)[nH]c(=O)c21 (centres undefined)
GI50 (SW-620): > 100 µM (inactive)
GI50 (RXF 393): > 100 µM (inactive)
GI50 (NCI-H226): > 100 µM (inactive)
GI50 (UACC-257): > 100 µM (inactive)
GI50 (MDA-MB-231): > 100 µM (inactive)
GI50 (RPMI-8226): > 100 µM (inactive)
GI50 (SN12C): > 100 µM (inactive)
GI50 (SK-MEL-2): > 100 µM (inactive)
GI50 (OVCAR-4): > 100 µM (inactive)
GI50 (UO-31): > 100 µM (inactive)
GI50 (SK-MEL-28): > 100 µM (inactive)
GI50 (HCT-116): > 100 µM (inactive)
GI50 (HT-29): > 100 µM (inactive)
GI50 (NCI/ADR-RES): > 100 µM (inactive)
GI50 (SF-539): > 100 µM (inactive)
GI50 (NCI-H460): > 100 µM (inactive)
GI50 (MDA-MB-435): > 100 µM (inactive)
GI50 (SNB-19): > 100 µM (inactive)
GI50 (OVCAR-5): > 100 µM (inactive)

CCCCCCCCCC[C@H](O)[C@H]1CC[C@H]([C@H]2CC[C@H]([C@H](O)CC[C@H](O)CCCCCCC[C@@H](O)CC3=C[C@H](C)OC3=O)O2)O1
GI50 (SW-620): > 10 µM (inactive)
GI50 (RXF 393): 40 µM (inactive)
GI50 (M14): 46.9 µM (inactive)
GI50 (NCI-H226): 2.47 µM (inactive)
GI50 (UACC-257): 1.08 µM (active)
GI50 (MDA-MB-231): > 10 µM (inactive)
GI50 (RPMI-8226): 1.04 µM (active)
GI50 (SN12C): 91.4 µM (inactive)
GI50 (SK-MEL-2): 78 µM (inactive)
GI50 (OVCAR-4): 41.4 µM (inactive)
GI50 (UO-31): 2.02 µM (inactive)
GI50 (SK-MEL-28): > 10 µM (inactive)
GI50 (HCT-116): < 0.01 µM (active)
GI50 (HT-29): > 10 µM (inactive)
GI50 (NCI/ADR-RES): 1.61 µM (inactive)
GI50 (SF-539): 24 µM (inactive)
GI50 (NCI-H460): 1.46 µM (inactive)
GI50 (MDA-MB-435): 3.9 µM (inactive)
GI50 (SNB-19): 17 µM (inactive)
GI50 (OVCAR-5): > 10 µM (inactive)

ClC1(c2ccccc2)c2ccc(Br)cc2-c2cc(Br)ccc21
GI50 (SW-620): 19.8 µM (inactive)
GI50 (RXF 393): 18.4 µM (inactive)
GI50 (M14): 14.2 µM (inactive)
GI50 (NCI-H226): 17.4 µM (inactive)
GI50 (UACC-257): 18.3 µM (inactive)
GI50 (MDA-MB-231): 16.7 µM (inactive)
GI50 (RPMI-8226): 28.7 µM (inactive)
GI50 (SN12C): 18.6 µM (inactive)
GI50 (SK-MEL-2): 17.8 µM (inactive)
GI50 (OVCAR-4): 14.1 µM (inactive)
GI50 (UO-31): 15.5 µM (inactive)
GI50 (SK-MEL-28): 18.8 µM (inactive)
GI50 (HCT-116): 14.9 µM (inactive)
GI50 (HT-29): 12.3 µM (inactive)
GI50 (NCI/ADR-RES): 18.1 µM (inactive)
GI50 (SF-539): 18.7 µM (inactive)
GI50 (NCI-H460): 14.3 µM (inactive)
GI50 (MDA-MB-435): 13.5 µM (inactive)
GI50 (SNB-19): 16.9 µM (inactive)
GI50 (OVCAR-5): 17.3 µM (inactive)

NC(=S)N/N=C/c1ncccc1N [TRIAPINE]
GI50 (SW-620): 3.72 µM (inactive)
GI50 (RXF 393): 1.07 µM (active)
GI50 (M14): 0.583 µM (active)
GI50 (NCI-H226): 2.75 µM (inactive)
GI50 (UACC-257): > 6.65 µM (inactive)
GI50 (MDA-MB-231): 5.28 µM (inactive)
GI50 (RPMI-8226): 0.792 µM (active)
GI50 (SN12C): 1.41 µM (inactive)
GI50 (SK-MEL-2): > 10 µM (inactive)
GI50 (OVCAR-4): 7.48 µM (inactive)
GI50 (UO-31): 0.37 µM (active)
GI50 (SK-MEL-28): > 10 µM (inactive)
GI50 (HCT-116): 0.986 µM (active)
GI50 (HT-29): 1.93 µM (inactive)
GI50 (NCI/ADR-RES): 2.04 µM (inactive)
GI50 (SF-539): 0.239 µM (active)
GI50 (NCI-H460): 1.68 µM (inactive)
GI50 (MDA-MB-435): 1.71 µM (inactive)
GI50 (SNB-19): 9.89 µM (inactive)
GI50 (OVCAR-5): 5.08 µM (inactive)

COc1cc(/C=C2\C[C@H]3[C@@H]4CC=C5C[C@@H](N6CCCC6)CC[C@]5(C)[C@H]4CC[C@]3(C)[C@H]2O)cc(OC)c1OC
GI50 (SW-620): 8.04 µM (inactive)
GI50 (RXF 393): 7.57 µM (inactive)
GI50 (M14): 2.2 µM (inactive)
GI50 (NCI-H226): 21.2 µM (inactive)
GI50 (UACC-257): 15 µM (inactive)
GI50 (MDA-MB-231): 17.5 µM (inactive)
GI50 (RPMI-8226): 6.4 µM (inactive)
GI50 (SN12C): 13.2 µM (inactive)
GI50 (SK-MEL-2): 19.5 µM (inactive)
GI50 (OVCAR-4): 13.8 µM (inactive)
GI50 (UO-31): 2.8 µM (inactive)
GI50 (SK-MEL-28): 17.4 µM (inactive)
GI50 (HCT-116): 13.2 µM (inactive)
GI50 (HT-29): 3.38 µM (inactive)
GI50 (NCI/ADR-RES): 15.8 µM (inactive)
GI50 (SF-539): 16.3 µM (inactive)
GI50 (NCI-H460): 3.78 µM (inactive)
GI50 (MDA-MB-435): 4.45 µM (inactive)
GI50 (SNB-19): 18.8 µM (inactive)
GI50 (OVCAR-5): 8.79 µM (inactive)

O=C(CON1C(=O)c2ccccc2C1=O)c1ccccc1
GI50 (SW-620): 24.3 µM (inactive)
GI50 (RXF 393): 55.8 µM (inactive)
GI50 (M14): 57.1 µM (inactive)
GI50 (NCI-H226): > 100 µM (inactive)
GI50 (UACC-257): 34.8 µM (inactive)
GI50 (MDA-MB-231): > 100 µM (inactive)
GI50 (RPMI-8226): 18.6 µM (inactive)
GI50 (SN12C): 47.1 µM (inactive)
GI50 (SK-MEL-2): > 100 µM (inactive)
GI50 (OVCAR-4): 77.8 µM (inactive)
GI50 (UO-31): 21.3 µM (inactive)
GI50 (SK-MEL-28): > 100 µM (inactive)
GI50 (HCT-116): 36.2 µM (inactive)
GI50 (HT-29): 48.3 µM (inactive)
GI50 (NCI/ADR-RES): > 100 µM (inactive)
GI50 (SF-539): 37.5 µM (inactive)
GI50 (NCI-H460): > 100 µM (inactive)
GI50 (MDA-MB-435): 42 µM (inactive)
GI50 (SNB-19): > 100 µM (inactive)
GI50 (OVCAR-5): > 100 µM (inactive)
